Patent US10973835B2, “Boron-containing small molecules for inhibiting activity of a receptor-like protein tyrosine phosphatase” (The Penn State Research Foundation, priority 2017, dated 2021)
Entries after “also recorded” stand apart in the source; their conditions may differ. Like-named read-outs stand apart in the source and are kept apart here. Values belong to the compound of their own block, whether it stands above or below them.

Tests used:
[1] = molecular target: LAR-oxidized (Leukocyte common antigen-related, LAR) (Homo sapiens, UniProt P10586); experiment: RPTP assay, standard assay conditions: phosphatase activity of oxidized LAR (DiFMUP substrate, TCEP reduction); type: biochemical
LAR-oxidized (Leukocyte common antigen-related, LAR), sequence (P10586 30-1907): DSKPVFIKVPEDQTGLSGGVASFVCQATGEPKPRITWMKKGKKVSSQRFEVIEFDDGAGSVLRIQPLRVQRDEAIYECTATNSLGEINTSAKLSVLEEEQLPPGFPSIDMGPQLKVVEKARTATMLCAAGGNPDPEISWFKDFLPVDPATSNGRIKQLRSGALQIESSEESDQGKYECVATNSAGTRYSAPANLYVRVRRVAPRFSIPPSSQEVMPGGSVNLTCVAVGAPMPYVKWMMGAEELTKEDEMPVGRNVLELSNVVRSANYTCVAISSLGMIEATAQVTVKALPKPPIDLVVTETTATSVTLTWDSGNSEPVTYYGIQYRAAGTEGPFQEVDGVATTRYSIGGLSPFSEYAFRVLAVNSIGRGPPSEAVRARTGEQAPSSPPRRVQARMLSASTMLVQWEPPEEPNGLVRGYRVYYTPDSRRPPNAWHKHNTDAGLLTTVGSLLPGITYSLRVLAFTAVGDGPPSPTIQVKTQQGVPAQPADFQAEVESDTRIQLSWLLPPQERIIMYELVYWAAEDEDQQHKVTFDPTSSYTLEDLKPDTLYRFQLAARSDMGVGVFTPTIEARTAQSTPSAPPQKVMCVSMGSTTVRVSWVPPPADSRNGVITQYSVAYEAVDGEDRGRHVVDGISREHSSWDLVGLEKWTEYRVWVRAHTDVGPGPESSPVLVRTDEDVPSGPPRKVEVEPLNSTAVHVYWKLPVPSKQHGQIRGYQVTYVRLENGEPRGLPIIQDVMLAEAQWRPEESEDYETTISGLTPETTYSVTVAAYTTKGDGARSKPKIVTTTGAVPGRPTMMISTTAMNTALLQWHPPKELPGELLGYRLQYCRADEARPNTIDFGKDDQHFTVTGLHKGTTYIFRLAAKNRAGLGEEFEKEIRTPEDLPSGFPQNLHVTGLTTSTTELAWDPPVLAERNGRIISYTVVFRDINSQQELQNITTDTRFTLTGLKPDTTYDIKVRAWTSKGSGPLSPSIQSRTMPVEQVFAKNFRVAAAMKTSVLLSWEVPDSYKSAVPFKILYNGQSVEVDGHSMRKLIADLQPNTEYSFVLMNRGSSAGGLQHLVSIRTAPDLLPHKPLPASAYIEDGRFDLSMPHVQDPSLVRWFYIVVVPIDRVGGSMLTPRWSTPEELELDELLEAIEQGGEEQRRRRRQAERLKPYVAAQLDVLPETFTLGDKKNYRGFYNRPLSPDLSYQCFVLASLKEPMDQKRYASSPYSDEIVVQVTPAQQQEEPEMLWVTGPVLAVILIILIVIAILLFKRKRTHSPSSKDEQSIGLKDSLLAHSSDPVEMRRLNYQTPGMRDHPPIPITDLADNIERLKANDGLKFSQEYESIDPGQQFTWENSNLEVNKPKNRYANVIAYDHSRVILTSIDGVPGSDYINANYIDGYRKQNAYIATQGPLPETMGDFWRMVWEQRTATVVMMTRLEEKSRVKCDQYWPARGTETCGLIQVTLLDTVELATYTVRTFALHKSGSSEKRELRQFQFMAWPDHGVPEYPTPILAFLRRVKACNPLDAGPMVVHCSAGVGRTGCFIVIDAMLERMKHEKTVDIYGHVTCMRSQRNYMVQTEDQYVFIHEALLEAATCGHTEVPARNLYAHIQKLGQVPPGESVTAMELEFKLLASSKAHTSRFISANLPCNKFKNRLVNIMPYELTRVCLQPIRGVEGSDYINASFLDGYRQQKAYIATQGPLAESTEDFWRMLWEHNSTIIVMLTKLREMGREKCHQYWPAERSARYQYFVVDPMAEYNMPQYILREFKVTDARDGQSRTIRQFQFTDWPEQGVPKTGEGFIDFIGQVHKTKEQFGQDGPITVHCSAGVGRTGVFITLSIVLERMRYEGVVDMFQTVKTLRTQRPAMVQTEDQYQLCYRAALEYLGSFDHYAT
Procedure: (§1) Leukocyte common antigen-related (LAR) and PTPσ were used as illustrative type IIa RPTPs. Illustratively, purified LAR (100 nM) was mixed with H2O2 (2 mM) in phosphatase assay buffer (50 mM HEPES, pH 7.0, 100 mM NaCl, 0.1% BSA) at room temperature for 10 minutes. Excess H2O2 was removed with a Zeba™ Desalting Column (Thermo Scientific) equilibrated in the assay buffer without any reducing agent. Phosphatase activity was measured for each protein sample using 6,8-difluoro-4-methylumbiliferyl phosphate (DiFMUP) as the substrate, with or without 5 mM Tris(2-carboxyethyl)phosphine hydrochloride (TCEP). Activity of the oxidized sample was compared to that of the untreated (unoxidized) sample in the presence of 5 mM TCEP.
(§2) LAR-OX (10 nM) was incubated with compounds (0.1 mM) for varying lengths of time and the phosphatase activity was monitored using DiFMUP as substrate following reduction of the PTP with TCEP (5 mM). TCEP was not removed before adding DiFMUP. DiFMUP was added right after TCEP and the activity was followed continuously for 60 minutes. […] The above protocol was used to test the activity of other phosphatases (PTP1B, PTPσ, SHP2, PTPα, PTEN, and JSP1).

[2] = molecular target: PTPσ-oxidized (Homo sapiens, UniProt Q13332); experiment: RPTP assay, standard assay conditions: phosphatase activity of oxidized PTPσ; type: biochemical
PTPσ-oxidized, sequence (Q13332 30-1948): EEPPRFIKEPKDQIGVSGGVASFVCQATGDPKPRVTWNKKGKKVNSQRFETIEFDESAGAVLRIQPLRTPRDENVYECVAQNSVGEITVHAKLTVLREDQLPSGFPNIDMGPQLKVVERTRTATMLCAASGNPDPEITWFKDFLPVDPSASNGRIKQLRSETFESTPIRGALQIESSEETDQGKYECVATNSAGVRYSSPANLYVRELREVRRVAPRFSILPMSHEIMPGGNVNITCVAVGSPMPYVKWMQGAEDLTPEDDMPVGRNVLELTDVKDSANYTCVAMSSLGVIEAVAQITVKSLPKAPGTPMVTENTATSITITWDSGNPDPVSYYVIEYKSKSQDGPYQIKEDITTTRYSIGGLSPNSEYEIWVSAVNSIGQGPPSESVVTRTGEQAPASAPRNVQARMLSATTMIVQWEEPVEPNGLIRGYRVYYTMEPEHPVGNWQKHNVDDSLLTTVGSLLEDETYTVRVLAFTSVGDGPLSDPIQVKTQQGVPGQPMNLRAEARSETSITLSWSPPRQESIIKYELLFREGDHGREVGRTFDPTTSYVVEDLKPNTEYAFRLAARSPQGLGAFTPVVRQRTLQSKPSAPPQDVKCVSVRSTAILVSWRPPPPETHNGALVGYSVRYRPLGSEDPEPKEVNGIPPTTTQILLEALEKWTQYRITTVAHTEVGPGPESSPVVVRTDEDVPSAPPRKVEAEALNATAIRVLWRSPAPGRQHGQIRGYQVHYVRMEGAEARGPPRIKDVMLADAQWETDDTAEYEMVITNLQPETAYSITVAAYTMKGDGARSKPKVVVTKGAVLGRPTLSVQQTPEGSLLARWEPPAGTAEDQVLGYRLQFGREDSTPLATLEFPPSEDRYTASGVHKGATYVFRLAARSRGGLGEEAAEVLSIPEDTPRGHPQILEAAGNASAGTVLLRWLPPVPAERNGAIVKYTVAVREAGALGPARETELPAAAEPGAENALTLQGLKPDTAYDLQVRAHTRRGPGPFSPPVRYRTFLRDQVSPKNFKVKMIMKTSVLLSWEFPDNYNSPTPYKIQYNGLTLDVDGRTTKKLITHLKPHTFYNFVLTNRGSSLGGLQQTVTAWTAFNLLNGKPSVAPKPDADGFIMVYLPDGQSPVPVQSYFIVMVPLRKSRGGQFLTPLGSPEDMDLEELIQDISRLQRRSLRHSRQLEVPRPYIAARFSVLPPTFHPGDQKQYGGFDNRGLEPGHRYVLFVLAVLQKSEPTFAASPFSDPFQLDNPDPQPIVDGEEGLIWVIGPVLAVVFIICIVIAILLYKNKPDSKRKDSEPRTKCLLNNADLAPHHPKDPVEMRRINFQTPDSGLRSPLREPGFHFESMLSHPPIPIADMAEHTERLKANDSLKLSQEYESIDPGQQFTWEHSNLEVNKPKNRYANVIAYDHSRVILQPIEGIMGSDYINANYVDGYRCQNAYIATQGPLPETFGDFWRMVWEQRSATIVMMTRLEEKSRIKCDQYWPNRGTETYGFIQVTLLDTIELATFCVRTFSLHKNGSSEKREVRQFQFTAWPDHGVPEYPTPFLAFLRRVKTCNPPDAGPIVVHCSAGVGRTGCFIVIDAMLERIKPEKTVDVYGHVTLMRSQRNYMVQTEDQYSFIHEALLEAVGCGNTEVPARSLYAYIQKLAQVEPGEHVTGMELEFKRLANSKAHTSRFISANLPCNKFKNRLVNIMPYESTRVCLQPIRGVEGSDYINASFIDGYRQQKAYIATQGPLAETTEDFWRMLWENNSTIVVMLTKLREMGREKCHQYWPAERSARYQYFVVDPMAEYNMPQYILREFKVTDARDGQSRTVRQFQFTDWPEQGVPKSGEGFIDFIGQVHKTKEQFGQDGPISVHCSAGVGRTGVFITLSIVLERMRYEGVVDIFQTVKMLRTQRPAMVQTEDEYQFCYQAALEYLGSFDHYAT
Procedure: as §1, §2

[3] = tested on: MuSK phosphorylation (LAR dephosphorylating MuSK) in C2C12 myotubes; experiment: MuSK tyrosine phosphorylation in agrin-stimulated C2C12 myotubes (anti-pTyr immunoprecipitation, anti-MuSK blot); type: cell-based, mouse
Procedure: C2C12 cells serum starved (8 hours) and then treated with CL-37 for 1 hour. Following which, cells were stimulated with Agrin (10 nM) for varying lengths of time (0-60 minutes). The cells were lysed and lysates were used to immunoprecipitate tyrosine phosphorylated proteins using 4G10® (05-321 from EMD Milliooire Corp. and PY20 (such as ab10321 fromabcam Plc) antibodies for 90 minutes at 4 C. The immunocomplexes were washed and resolved on SDS gels and immunoblotted using anti-MUSK antibody. For the immunoprecipitation experiments, 1 mg of total cell lysate was incubated with anti-pTyr antibodies at 4° C. for 90 minutes. The interacting protein complexes were immunoprecipitated after incubating the lysate-antibody mixture with protein A/G Sepharose® at 4° C. for 30 minutes. After immunoprecipitation, Sepharose® beads were washed three times at 4° C. with wash buffer (PBS, pH 7.4, 0.05% BSA, 0.05% Tween®-20 and protease inhibitors). Complexes were separated by SDS-PAGE and immunoblotted using anti-MUSK antibody.

[4] = tested on: C2C12 cells; experiment: Cell vitality under the MuSK phosphorylation experimental condition; type: cell-based, mouse; conditions: C2C12, experimental condition of FIG. 3
[5] = Stability of difluoroborate compounds using 19F and 11B NMR; conditions: acetonitrile-d3 alone and 80% acetonitrile-d3/20% D2O; up to seven days; room temperature
[6] = Table 2, Formula III, R1 and R2 para to boron, read-out: LAR-ox Ki
[7] = FIG. 1, oxidized form, 0.1 to 100 μM compound
[8] = Table 1, Formula II, potassium salt, R1 and R2 para to boron, read-out: LAR-ox Ki
[9] = FIG. 4, assay similar to FIG. 3, agrin stimulation
[10] = Table 3, Formula IV, read-out: LAR-ox Ki

SMILES: F[B-](F)(c1ccccc1)c1ccccc1 [CL-37]
phosphatase activity of LAR (inhibition) [1, 7]: most actively inhibited | Ki [1, 8]: 5 µM | phosphatase activity of PTP-sigma (inhibition) [2, 7]: most actively inhibited | Ki ([2]; read-out: PTPσ-oxidized Ki): 4 µM | phosphorylation level of MuSK versus control ([3]; FIG. 3, CL-37 5 μM, 1 hour pretreatment, agrin 10 nM, 0-60 minutes): significantly higher than the control; also recorded: inhibits LAR from dephosphorylating MuSK | phosphorylation level of MuSK versus control [3, 9]: higher phosphorylation; also recorded: enhance the phosphorylation level of MUSK | effect on cell vitality [4]: did not exhibit an adverse effect on cell vitality

SMILES: OB(c1ccc(F)cc1)c1ccc(-c2ccccc2)cc1 [CL-73-2]
Ki [1, 6]: 1 µM | phosphorylation level of MuSK versus control [3, 9]: higher phosphorylation; also recorded: enhance the phosphorylation level of MUSK

SMILES: Fc1ccc([B-](F)(F)c2ccc(-c3ccccc3)cc2)cc1 [CL-76]
Ki [1, 8]: 1 µM | Ki ([1]; read-out: LAR-oxidized Ki): 1 µM | phosphorylation level of MuSK versus control [3, 9]: higher phosphorylation; also recorded: enhance the phosphorylation level of MUSK

SMILES: OB1OCc2ccccc21 [Compound B-1]
Ki ([1]; read-out: LAR-oxidized Ki): > 1000 µM | Ki [2]: > 1000 µM

SMILES: Nc1ccc2c(c1)COB2O [Compound B-2]
Ki ([1]; read-out: LAR-oxidized Ki): > 1000 µM | Ki ([2]; read-out: PTPσ-oxidized Ki): > 1000 µM

SMILES: OB1OCCc2cc(F)ccc21 [Compound B-5]
Ki [1, 10]: > 1000 µM | Ki ([1]; read-out: LAR-oxidized Ki): > 1000 µM | Ki ([2]; read-out: PTPσ-oxidized Ki): > 1000 µM

SMILES: OB1OCc2cc(F)ccc21 [Compound B-7]
Ki ([1]; read-out: LAR-oxidized Ki): > 1000 µM | Ki ([2]; read-out: PTPσ-oxidized Ki): > 1000 µM

SMILES: Nc1ccc2c(c1)B(O)OCC2 [Compound B-14]
Ki [1, 10]: 57 µM | Ki ([2]; read-out: PTPσ-oxidized Ki): 100 µM

SMILES: OB1OCCc2ccccc21 [Compound S-4]
Ki [1, 10]: 500 µM

SMILES: O=C(Nc1ccc2c(c1)B(O)OCC2)c1ccc(F)cc1 [Compound S-6]
Ki [1, 10]: > 1000 µM | Ki ([1]; read-out: LAR-oxidized Ki): > 1000 µM

The next lines start with the values.

Ki [1, 6]: 20 µM
SMILES: OB(c1ccccc1)c1ccccc1 [CL-30]

Ki ([1]; read-out: LAR-oxidized Ki): > 1000 µM
SMILES: C=CB(O)c1ccccc1 [CL-49]

Ki [1, 8]: > 1000 µM | Ki ([1]; read-out: LAR-oxidized Ki): > 1000 µM
SMILES: COc1ccc([B-](F)(F)c2ccc(OC)cc2)cc1 [CL-60]

Ki [1, 8]: 4 µM
SMILES: F[B-](F)(c1ccc(Cl)cc1)c1ccc(Cl)cc1 [CL-61]

Ki [1, 8]: 4 µM
SMILES: Fc1ccc([B-](F)(F)c2ccc(F)cc2)cc1 [CL-65]

Ki ([1]; read-out: LAR-oxidized Ki): > 1000 µM
SMILES: F[B-](F)(F)c1ccc(-c2ccccc2)cc1 [CL-70]

hydrolysis or degradation by 19F and 11B NMR [5]: no hydrolysis or degradation
SMILES: F[B-](F)(c1ccc(Cl)cc1)c1ccc(-c2ccccc2)cc1 [CL-83]
